Molecules are shown by their SMILES. pKd: −log10 of the molar value. Calls of active or inactive are those of the source. The rule behind the calls is not given here.

For experiment [1], the system named is HeLa. Briefly: Cytotoxicity against human HeLa cells assessed as cell viability at 50 uM measured after 48 hrs by MTT assay. Type of experiment: functional. The following applies: read-out: Activity. A general note: Formazan colour is commonly taken as a measure of viable cells.
Experiment [2] concerns HepG2. Briefly: Cytotoxicity against human HepG2 cells assessed as cell viability at 50 uM measured after 48 hrs by MTT assay. Type of experiment: functional. The following applies: HepG2, 48 h, read-out: Activity.
The test system of experiment [3] is MCF7. Nature of the experiment: Cytotoxicity against human MCF7 cells assessed as cell viability at 50 uM measured after 48 hrs by MTT assay. Type of experiment: functional. The following applies: MCF7, 48 h, read-out: Activity.
The test system of experiment [4] is SMMC-7721. Briefly: Cytotoxicity against human SMMC7721 cells assessed as cell viability at 50 uM measured after 48 hrs by MTT assay. Format: functional. The following applies: SMMC-7721, 48 h, read-out: Activity.
Experiment [5] addresses T1, Retinoic acid receptor RXR-alpha (Homo sapiens) (UniProt P19793).
T1 sequence (whole entry): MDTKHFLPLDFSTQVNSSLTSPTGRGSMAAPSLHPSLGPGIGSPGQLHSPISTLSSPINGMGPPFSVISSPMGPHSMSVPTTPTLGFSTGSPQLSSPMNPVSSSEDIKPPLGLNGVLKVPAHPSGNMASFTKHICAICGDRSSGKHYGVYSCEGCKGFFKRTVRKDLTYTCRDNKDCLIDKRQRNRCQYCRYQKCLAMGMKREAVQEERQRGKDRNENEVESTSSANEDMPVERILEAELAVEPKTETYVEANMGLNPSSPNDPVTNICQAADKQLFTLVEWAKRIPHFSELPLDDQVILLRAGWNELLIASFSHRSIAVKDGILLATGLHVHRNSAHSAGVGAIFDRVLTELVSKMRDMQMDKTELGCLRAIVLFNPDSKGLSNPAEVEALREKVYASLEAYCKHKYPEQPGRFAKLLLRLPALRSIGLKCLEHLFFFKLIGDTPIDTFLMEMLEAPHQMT
Nature of the experiment: Transrepression of GAL4-fused RXRalpha LBD (unknown origin) expressed in 293T cells assessed as inhibition of 9-cis-RA-induced transcription at 50 uM measured after 12 hrs by dual-luciferase reporter gene assay. Format: cell-based.

The target of experiment [6] is T1, Retinoic acid receptor RXR-alpha (Homo sapiens). Briefly: (§1) Binding affinity to recombinant human RXRalpha LBD ([…] residues) expressed in Escherichia coli BL21 (DE3) by fluorescence quenching assay.
For experiment [7] the target is unchanged. Briefly: Transrepression of GAL4-fused RXRalpha LBD (unknown origin) expressed in 293T cells assessed as inhibition of 9-cis-RA-induced transcription measured after 12 hrs by dual-luciferase reporter gene assay. Type of experiment: cell-based. (In general: In a reporter assay the amount or activity of a reporter protein is the signal.)
The test system of experiment [8] is HeLa. Nature of the experiment: Cytotoxicity against human HeLa cells assessed as inhibition of cell proliferation at 50 uM measured after 48 hrs by MTT assay. Type of experiment: functional.
Experiment [9] deals with HepG2. Nature of the experiment: Cytotoxicity against human HepG2 cells assessed as reduction in cell viability at 50 uM measured after 48 hrs by MTT assay. Format: functional, cell-based.
In experiment [10] the test system is MCF7. Nature of the experiment: Cytotoxicity against human MCF7 cells assessed as reduction in cell viability at 50 uM measured after 48 hrs by MTT assay. Type of experiment: functional, cell-based.
The test system of experiment [11] is SMMC-7721. Nature of the experiment: Cytotoxicity against human SMMC7721 cells assessed as reduction in cell viability at 50 uM measured after 48 hrs by MTT assay. Format: functional, cell-based.
The test system of experiment [12] is HeLa. Nature of the experiment: Induction of apoptosis in human HeLa cells assessed as increase in cleaved PARP expression at 50 uM by Western blot analysis. Type of experiment: functional, cell-based. The following applies: TDE = time-dependent effect. (In western blotting, separated proteins are transferred to a membrane and probed.)
The test system of experiment [13] is HeLa. Briefly: Induction of apoptosis in human HeLa cells assessed as increase in cleaved PARP expression after 24 hrs by Western blot analysis. Type of experiment: functional, cell-based.
Experiment [14] deals with HeLa. Briefly: Induction of apoptosis in human HeLa cells assessed as increase in caspase-8 activity at 50 uM measured after 10 hrs by Caspase-Glo luminescence assay. Type of experiment: functional, cell-based.
Experiment [15] has as its system HeLa. Briefly: Induction of apoptosis in human HeLa cells assessed as increase in caspase-3 activity at 50 uM measured after 10 hrs by Caspase-Glo luminescence assay. Type of experiment: functional, cell-based.
The target in experiment [16] is T2, Retinoic acid receptor RXR-alpha (Homo sapiens, UniProt P19793).
T2 sequence (P19793 whole entry): T1 sequence (whole entry)
The description is as §1.

In experiment [17] the test system is HeLa. Briefly: Induction of apoptosis in human HeLa cells assessed as increase in cleaved PARP expression at 20 uM by Western blot analysis. The settings on record: TDE = time-dependent effect. Type of experiment: functional, cell-based.
For experiment [18], the system named is HeLa. Nature of the experiment: Induction of apoptosis in human HeLa cells assessed as increase in caspase-8 activity at 20 uM measured after 10 hrs by Caspase-Glo luminescence assay. Type of experiment: functional, cell-based.
The subject of experiment [19] is HeLa. Nature of the experiment: Induction of apoptosis in human HeLa cells assessed as increase in caspase-3 activity at 20 uM measured after 10 hrs by Caspase-Glo luminescence assay. Type of experiment: functional, cell-based.

Take `COc1ccc2c(=O)c3cccc(O)c3oc2c1`: the viability at 50 µM in the experiment with HeLa [1], in the experiment on HepG2 [2], with MCF7 [3] and in the experiment on SMMC-7721 [4] was less than 50% in each case.
Take `CC(C)c1cc(=O)c2c(O)cc(O)cc2o1`: in experiment [5], the inhibition result is “Active”.
As for `Cc1cc2c(cc1-c1cc(/C=C/C(=O)O)ccc1O)C(C)(C)CCC2(C)C`, the Activity entry in experiment [6] is “Dose-dependent effect”.
In the case of `CC[C@H](C)c1cc(=O)c2c(O)cc(O)cc2o1`, in experiment [5], the inhibition result was “Active”. In experiment [7], the inhibition result is “Dose-dependent effect”. The inhibition at 50 µM in the experiment with HeLa [8] is greater than 50%. In addition, the result with HepG2 [9], with MCF7 [10], with SMMC-7721 [11] and in the experiment on HeLa [15] was inactive. Further, the values for the Activity result (in the experiment on HeLa [12]; with HeLa [13]; in [6]) were “Tde”, “Dose-dependent effect” and “Dose-dependent effect”, respectively. In the experiment with HeLa [14], the outcome was Active. The pKd in experiment [16] is 4.17.
`COc1cc(-c2cc(=O)c3c(O)cc(O)cc3o2)ccc1O`: the inhibition result in experiment [5] was “Active”. Moreover, the inhibition entry in experiment [7] is “Dose-dependent effect”.
For `COc1cc([C@H]2OC(=O)[C@H]3[C@@H]2CO[C@@H]3c2ccc(O)c(OC)c2)ccc1O`, the inhibition result in [5] was “Active”. In addition, the viability at 50 µM in the experiment with HeLa [1], in the experiment on HepG2 [2], with MCF7 [3] and in the experiment on SMMC-7721 [4] was less than 50% each time.
For the molecule `CC(C)=CCOc1cc2c(=O)c3c(O)cc(O)cc3oc2cc1O`, the inhibition entry in experiment [5] is “Active”. The inhibition entry in experiment [7] was “Dose-dependent effect”. In addition, in the experiment with HeLa [8], the inhibition at 50 µM was greater than 50%. For the same molecule, the result with HepG2 [9], in the experiment on MCF7 [10], with SMMC-7721 [11] and with HeLa [19] was inactive. Besides, the Activity result in the experiment with HeLa [17] was “Tde”; with HeLa [13] it was “Dose-dependent effect”; in experiment [6], “Dose-dependent effect”. For the same molecule, the result in the experiment with HeLa [18] was Active. Further, the negative logarithm of the Kd (pKd) in experiment [16] is 4.85.

As a reminder, the inhibition is the change of the read-out against control, counted positive when it falls. By pKd is commonly meant the negative decadic logarithm of the Kd, by convention in mol/L.
